# Data from paper PMC12881681 (Molecular Pharmacology, 2025).
# Legend:
# [1] = clinical phase I study; cited from earlier work
# [2] = Pharmacokinetics study in mice: erlotinib pretreatment, carbazeran and 4-oxo-carbazeran; assay type: in vivo, BALB/c mice; conditions: erlotinib 100 mg/kg p.o.
# Experimental: BALB/c mice (male, ∼8 weeks old) were purchased and housed at the Biological Resource Centre, Agency for Science, Technology and Research (A∗STAR). The experimental protocol was approved by the A∗STAR Institutional Review Board. […] Blood (12.5 μL) was drawn from the tail vein (with a needle prick) at various times (0.25, 0.5, 0.75, 1, 2, 3, 4, 6, and 8 hours) after carbazeran dosing. The blood samples were diluted 2 times with 12.5 μL of water. Acetonitrile containing the internal standard (carbazeran-d4, 4 nM in 75 μL acetonitrile and 3 nM in final sample volume of 100 μL) was added to the blood samples to precipitate proteins. […] Blank and standard calibration samples were prepared from control mice that were not treated with any chemicals. Pharmacokinetic data were analyzed by noncompartmental analysis using Phoenix WinNonlin 6.3 (Certara).
# At the end of the last blood collection (8 hour post-carbazeran dosing), the mice were sacrificed. […] The tissue samples were homogenized, and a 12.5 μL aliquot of the homogenate was diluted with an equal volume of water. Acetonitrile containing the internal standard (carbazeran-d4, 4 nM in 75 μL acetonitrile and 3 nM in final sample volume of 100 μL) was added to the diluted tissue samples (25 μL) to precipitate the proteins.
# [3] = ref erlotinib (TARCEVA), package insert, 2016; cited from earlier work
structure (smiles),measurement,setting,value
C#Cc1cccc(Nc2ncnc3cc(OCCOC)c(OCCOC)cc23)c1 [Erlotinib],effect on plasma concentration of OSI-930,[1],increase
same,concentration of 4-oxo-carbazeran metabolite in liver and kidneys,[2]; 8 hours after carbazeran,decreased the concentration
same,concentration of carbazeran in liver and kidneys,[2]; 8 hours after carbazeran,increased the concentration
same,concentration of 4-oxo-carbazeran metabolite in blood vs vehicle-treated control,[2]; all time points to 8 h,far lesser concentration
same,concentration of carbazeran in blood vs vehicle-treated control,[2]; all time points to 8 h,greater concentration
same,Plasma fu,[3],"e Cmax,u = plasma fu × Cmax. Plasma fu = 0.07, based on erlotinib (TARCEVA), package insert, 2016. For O-desmethylerlotinib and O-didesmethylerlotinib, the fu is assumed to be similar to the parent drug."
